In ChEMBL document CHEMBL1212738, “Phenotypic and genotypic characterization of Enterobacteriaceae with decreased susceptibility to carbapenems: results from large hospital-based surveillance studies in China” (2010):

How the values were obtained:
[1] = system: Escherichia coli; assay: Antimicrobial activity against Escherichia coli C600 transconjugant SZ62T expressing IMP-4, qnrS1by CLSI method
[2] = system: Klebsiella aerogenes; assay: Antimicrobial activity against Enterobacter aerogenes PU41T expressing CTX-M-14, DHA-1, qnrS1 by CLSI method; format: functional
[3] = system: Enterobacter cloacae; assay: Antimicrobial activity against carbapenem-resistant Enterobacter cloacae SZ93 deficient in ompC by CLSI method; format: functional
[4] = system: Klebsiella pneumoniae; assay: Antimicrobial activity against Klebsiella pneumoniae ZJ70T expressing KPC-2 by CLSI method; format: functional
[5] = system: Escherichia coli; assay: Antimicrobial activity against Escherichia coli C600 transconjugant WH77T expressing IMP-4, TEM-1, CTX-M-3, qnrS1 by CLSI method
[6] = system: Klebsiella pneumoniae; assay: Antimicrobial activity against carbapenem-resistant Klebsiella pneumoniae FZ47 deficient in IMP-8, TEM-1, SHV-11, CTX-M-14, qnrB2, aac(6')-Ib, ompK35/36 by CLSI method; format: functional
[7] = system: Enterobacter cloacae; assay: Antimicrobial activity against carbapenem-resistant Enterobacter cloacae NJ91 deficient in CTX-M-14, ompC/F by CLSI method; format: functional
[8] = system: Klebsiella pneumoniae; assay: Antimicrobial activity against carbapenem-resistant Klebsiella pneumoniae ZJ70 deficient in KPC-2, SHV-11, CTX-M-14, ompK35/36 by CLSI method; format: functional
[9] = system: Klebsiella pneumoniae; assay: Antimicrobial activity against carbapenem-resistant Klebsiella pneumoniae CY75 deficient in SHV-11, DHA-1, ompK35/36 by CLSI method; format: functional
[10] = system: Klebsiella pneumoniae; assay: Antimicrobial activity against Klebsiella pneumoniae ZJ99 expressing KPC-2, CTX-M-3, qnrS1, ompK35 DE by CLSI method; format: functional
[11] = system: Klebsiella pneumoniae; assay: Antimicrobial activity against Klebsiella pneumoniae GZ64 expressing IMP-4, ompK35/36 by CLSI method; format: functional
[12] = system: Klebsiella aerogenes; assay: Antimicrobial activity against carbapenem-resistant Enterobacter aerogenes PU41 deficient in CTX-M-14, DHA-1, qnrS1, ompC DEc, ompF by CLSI method; format: functional
[13] = system: Escherichia coli; assay: Antimicrobial activity against Escherichia coli ZJ86T expressing KPC-2 by CLSI method; format: functional
[14] = system: Klebsiella pneumoniae; assay: Antimicrobial activity against carbapenem-resistant Klebsiella pneumoniae GZ84 deficient in SHV-11, aac(6')-Ib-cr, ompK35 by CLSI method; format: functional
[15] = system: Escherichia coli; assay: Antimicrobial activity against carbapenem-resistant Escherichia coli PU96 deficient in TEM-1, CTX-M-14, CMY-2, ompC/F by CLSI method; format: functional
[16] = system: Klebsiella pneumoniae; assay: Antimicrobial activity against Klebsiella pneumoniae CY1T expressing SHV-11, DHA-1 by CLSI method; format: functional
[17] = system: Klebsiella pneumoniae; assay: Antimicrobial activity against Klebsiella pneumoniae PU104T expressing TEM-1, CTX-M-15 by CLSI method; format: functional
[18] = system: Escherichia coli; assay: Antimicrobial activity against Escherichia coli ZJ87 expressing KPC-2, TEM-1, ompC by CLSI method; format: functional
[19] = system: Klebsiella pneumoniae; assay: Antimicrobial activity against carbapenem-resistant Klebsiella pneumoniae PU105 deficient TEM-1, SHV-12, CTX-M-14, DHA-1, qnrB10/B4-like, aac(6')-Ib-cr, ompK35/36 by CLSI method; format: functional
[20] = system: Klebsiella pneumoniae; assay: Antimicrobial activity against carbapenem-resistant Klebsiella pneumoniae PU5 deficient in SHV-12, DHA-1, aac(6')-Ib-cr, ompK35/36 by CLSI method; format: functional
[21] = system: Klebsiella aerogenes; assay: Antimicrobial activity against carbapenem-resistant Enterobacter aerogenes WH85 deficient in TEM-1, CTX-M-3, ompC/F by CLSI method; format: functional
[22] = system: Klebsiella pneumoniae; assay: Antimicrobial activity against carbapenem-resistant Klebsiella pneumoniae ZJ68 deficient in CTX-M-15, ompK35/36 by CLSI method
[23] = system: Escherichia coli; assay: Antimicrobial activity against Escherichia coli C600 transconjugant GZ66T expressing SHV-11, DHA-1 by CLSI method
[24] = system: Klebsiella pneumoniae; assay: Antimicrobial activity against carbapenem-resistant Klebsiella pneumoniae SZ61 deficient in TEM-1, SHV-1a, CMY-2, ompK35/36 by CLSI method; format: functional
[25] = system: Citrobacter freundii; assay: Antimicrobial activity against Citrobacter freundii SZ63 expressing IMP-4, qnrS1by CLSI method; format: functional
[26] = system: Escherichia coli; assay: Antimicrobial activity against Escherichia coli C600 by CLSI method; format: functional
[27] = system: Klebsiella pneumoniae; assay: Antimicrobial activity against carbapenem-resistant Klebsiella pneumoniae CY1 deficient in SHV-11, DHA-1, ompK35/36 by CLSI method; format: functional
[28] = system: Klebsiella pneumoniae; assay: Antimicrobial activity against Klebsiella pneumoniae WH76 expressing IMP-4, TEM-1, SHV-14, CTX-M-3, qnrS1 by CLSI method; format: functional
[29] = system: Escherichia coli; assay: Antimicrobial activity against Escherichia coli HX74T expressing CTX-M-3 by CLSI method; format: functional
[30] = system: Klebsiella pneumoniae; assay: Antimicrobial activity against Klebsiella pneumoniae GZ64T expressing IMP-4 by CLSI method; format: functional
[31] = system: Citrobacter freundii; assay: Antimicrobial activity against Citrobacter freundii SZ63T expressing IMP-4, qnrS1by CLSI method; format: functional
[32] = system: Enterobacter cloacae; assay: Antimicrobial activity against carbapenem-resistant Enterobacter cloacae NJ90 deficient in CTX-M-14, ompC/F by CLSI method; format: functional
[33] = system: Escherichia coli; assay: Antimicrobial activity against carbapenem-resistant Escherichia coli ZJ86 expressing KPC-2, TEM-1 with ompC loss by CLSI method
[34] = system: Klebsiella pneumoniae; assay: Antimicrobial activity against Klebsiella pneumoniae FZ49T expressing IMP-8, TEM-1, CTX-M-14, qnrB2, aac(6')-Ib by CLSI method; format: functional
[35] = system: Enterobacter cloacae; assay: Antimicrobial activity against carbapenem-resistant Enterobacter cloacae SZ92 deficient in IMP-4, TEM-1, CTX-M-14, DHA-1, qnrB10/B4-like, aac(6')-Ib, ompC by CLSI method; format: functional
[36] = system: Escherichia coli; assay: Antimicrobial activity against carbapenem-resistant Escherichia coli PU101 deficient in TEM-1, CTX-M-14, CMY-2, ompC by CLSI method; format: functional
[37] = system: Escherichia coli; assay: Antimicrobial activity against carbapenem-resistant Escherichia coli PU102 deficient in TEM-1, CTX-M-14, CMY-2, aac(6')-Ib, ompC DEc, ompF by CLSI method; format: functional
[38] = system: Klebsiella pneumoniae; assay: Antimicrobial activity against carbapenem-resistant Klebsiella pneumoniae ZJ18 deficient in KPC-2, SHV-28, DHA-1, ompK35 by CLSI method; format: functional
[39] = system: Escherichia coli; assay: Antimicrobial activity against Escherichia coli PU102T expressing TEM-1, CTX-M-14, CMY-2 by CLSI method; format: functional
[40] = system: Klebsiella pneumoniae; assay: Antimicrobial activity against carbapenem-resistant Klebsiella pneumoniae PU4 deficient in SHV-1, DHA-1, ompK35/36 by CLSI method; format: functional
[41] = system: Klebsiella pneumoniae; assay: Antimicrobial activity against Klebsiella pneumoniae WH97 expressing SHV-33, aac(6')-Ib, ompK35 DE by CLSI method; format: functional
[42] = system: Escherichia coli; assay: Antimicrobial activity against Escherichia coli ZJ87T expressing KPC-2 by CLSI method; format: functional

Measured: MIC

NCC[C@H](O)C(=O)N[C@@H]1C[C@H](N)[C@@H](O[C@H]2O[C@H](CN)[C@@H](O)[C@H](O)[C@H]2O)[C@H](O)[C@H]1O[C@H]1O[C@H](CO)[C@@H](O)[C@H](N)[C@H]1O [AMIKACIN]
32 µg/mL: [13]
1 µg/mL: [1] | [3] | [4] | [5] | [11] | [18] | [21] | [26] | [28] | [30] | [33] | [35] | [39] | [41] | [42]
16 µg/mL: [14]
0.5 µg/mL: [10]
> 256 µg/mL: [2] | [6] | [7] | [8] | [12] | [16] | [19] | [20] | [22] | [23] | [24] | [25] | [27] | [31] | [32] | [34] | [38] | [40]
2 µg/mL: [9] | [15] | [17] | [29]
4 µg/mL: [36]
64 µg/mL: [37]

CC(C)(O/N=C(\C(=O)N[C@@H]1C(=O)N2C(C(=O)[O-])=C(C[n+]3ccccc3)CS[C@H]12)c1csc(N)n1)C(=O)O [CEFTAZIDIME]
0.5 µg/mL: [3] | [26]
> 256 µg/mL: [1] | [5] | [6] | [7] | [11] | [15] | [19] | [25] | [31] | [32] | [34] | [35] | [36] | [41]
32 µg/mL: [4] | [13] | [18] | [21] | [33] | [42]
128 µg/mL: [23]
256 µg/mL: [9] | [14] | [20] | [22] | [24] | [27] | [28] | [29] | [30]
64 µg/mL: [2] | [8] | [10] | [12] | [16] | [17] | [37] | [38] | [39] | [40]
